This is an account of results in PMC8333425, “Discovery of a dual Ras and ARF6 inhibitor from a GPCR endocytosis screen” (Nature Communications, 2021).

Experiment in all cases: KINOMEscan kinase binding assay
In test [1] the target is T1, 384 kinases from the human genome (Homo sapiens, UniProt O43283).
T1 construct: purchased Eurofin/DiscoverX
The note with it: kinase LZK (Entrez MAP3K13). The text has this: (§1) We reasoned that because internalizing AT1R and its targeting to intracellular compartments can support continued MAPK signaling, and since 21 inhibits receptor internalization, it should also impede to some extent ERK1/2 activation. […] Receptor-mediated ERK1/2 signaling can involve upstream kinases such as PKC, BRAF, and MEK1[35],[36]. […] To exclude other kinases potentially involved in ERK1/2 and Akt activation as targets of 21, we ran a kinase binding assay (KINOMEscan™) on 384 kinases from the human genome. Remarkably, a very high selectivity score S(10) of 0.008 was found (Supplementary Data 3).
(§2) The chemical library used for initial screening was from Chembridge DiverSet™ (60,000 compounds), Maybridge HitFinder™ (16,000 compounds), Maybridge (selected, 16,000 compounds), SPECS (selected, 16000 compounds), Microsource Discovery Spectrum (2000 compounds), Biomol (natural products, 500 compounds), Prestwick (commercialized products, 1120 compounds), SIGMA LopacTM (1280 compounds) and internal collection (synthesized at Université de Montréal-IRIC, ~4000 compounds). Compounds were all assigned an Université de Montréal number (UM) for internal use. Screen was performed at IRIC HTS facility. KINOMEscan™ profiling was serviced by Eurofin/DiscoverX (San Diego, USA).
(§3) Description of Additional Supplementary Files […]
(§4) File Name: Supplementary Data 3
(§5) Description: KINOMEscan results. Compound 21’s effect was tested on 384 kinases. Data represent kinases binding to their ligands in presence of 10 µM of 21, as compared to DMSO (100%). Results are from one experiment and represent the average of duplicates. Three kinases (FLT3, KIT, and PDGFRB) out of 384 were more than 90% affected (selectivity score S(10) of 0.008). […]

Test [2] deals with T2, 384 kinases from the human genome (Homo sapiens, UniProt P27037).
T2 construct: purchased Eurofin/DiscoverX
The note with it: kinase ACVR2A (Entrez ACVR2A).
From the text: as §1, §2, §3, §4, §5

The target in test [3] is T3, 384 kinases from the human genome (Homo sapiens, UniProt P36888).
T3 construct: purchased Eurofin/DiscoverX
T3 sequence (P36888 27-993): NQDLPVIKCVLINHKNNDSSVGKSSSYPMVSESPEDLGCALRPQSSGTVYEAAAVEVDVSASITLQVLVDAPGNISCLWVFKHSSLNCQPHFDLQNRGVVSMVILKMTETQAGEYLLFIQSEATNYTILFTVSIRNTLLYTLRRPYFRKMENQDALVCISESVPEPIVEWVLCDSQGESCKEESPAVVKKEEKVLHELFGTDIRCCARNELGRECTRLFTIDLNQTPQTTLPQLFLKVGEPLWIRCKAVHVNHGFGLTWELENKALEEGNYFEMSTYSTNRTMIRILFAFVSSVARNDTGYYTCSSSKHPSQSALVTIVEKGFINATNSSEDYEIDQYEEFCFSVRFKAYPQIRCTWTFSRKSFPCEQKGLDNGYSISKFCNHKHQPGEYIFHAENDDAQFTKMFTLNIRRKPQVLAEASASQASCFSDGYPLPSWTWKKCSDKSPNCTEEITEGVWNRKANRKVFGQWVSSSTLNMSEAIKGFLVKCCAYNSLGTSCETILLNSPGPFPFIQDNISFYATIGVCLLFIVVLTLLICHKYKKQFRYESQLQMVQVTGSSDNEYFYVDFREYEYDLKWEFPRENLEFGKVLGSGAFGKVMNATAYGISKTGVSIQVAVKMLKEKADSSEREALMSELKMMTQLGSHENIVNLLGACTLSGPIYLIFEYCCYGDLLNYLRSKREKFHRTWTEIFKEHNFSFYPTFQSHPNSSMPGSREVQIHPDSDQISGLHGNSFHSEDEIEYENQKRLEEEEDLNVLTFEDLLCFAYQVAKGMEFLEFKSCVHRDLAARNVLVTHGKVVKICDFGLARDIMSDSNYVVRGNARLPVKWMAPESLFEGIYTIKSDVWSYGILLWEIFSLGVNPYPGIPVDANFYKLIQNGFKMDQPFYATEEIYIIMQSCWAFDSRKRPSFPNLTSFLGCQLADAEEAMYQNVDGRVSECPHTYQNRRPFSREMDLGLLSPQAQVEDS
From the text: as §1, §2, §3, §4, §5

Test [4] has as its target T4, 384 kinases from the human genome (Homo sapiens, UniProt Q8TDX7).
T4 construct: purchased Eurofin/DiscoverX
The conditions noted are these: kinase NEK7 (Entrez NEK7).
From the text: as §1, §2, §3, §4, §5

The target of test [5] is T5, 384 kinases from the human genome (Homo sapiens, UniProt Q13043).
T5 construct: purchased Eurofin/DiscoverX
The conditions noted are these: kinase MST1 (Entrez STK4).
From the text: as §1, §2, §3, §4, §5

Test [6] has as its target T6, 384 kinases from the human genome (Homo sapiens, UniProt P11362).
T6 construct: purchased Eurofin/DiscoverX
The note with it: kinase FGFR1 (Entrez FGFR1).
From the text: as §1, §2, §3, §4, §5

Test [7] has as its target T7, 384 kinases from the human genome (Homo sapiens, UniProt Q9NWZ3).
T7 construct: purchased Eurofin/DiscoverX
The conditions noted are these: kinase IRAK4 (Entrez IRAK4).
From the text: as §1, §2, §3, §4, §5

Test [8] deals with T8, 384 kinases from the human genome (Homo sapiens, UniProt Q9UIK4).
T8 construct: purchased Eurofin/DiscoverX
The note with it: kinase DAPK2 (Entrez DAPK2).
From the text: as §1, §2, §3, §4, §5

For test [9], the target named is T9, 384 kinases from the human genome (Homo sapiens, UniProt Q07002).
T9 construct: purchased Eurofin/DiscoverX
The conditions noted are these: kinase PCTK3 (Entrez CDK18).
From the text: as §1, §2, §3, §4, §5

Test [10] concerns the target T10, 384 kinases from the human genome (Homo sapiens, UniProt Q9UHD2).
T10 construct: purchased Eurofin/DiscoverX
The note with it: kinase TBK1 (Entrez TBK1).
From the text: as §1, §2, §3, §4, §5

Test [11] has as its target T11, 384 kinases from the human genome (Homo sapiens, UniProt P68400).
T11 construct: purchased Eurofin/DiscoverX
The conditions noted are these: kinase CSNK2A1 (Entrez CSNK2A1).
From the text: as §1, §2, §3, §4, §5

Test [12] concerns the target T12, 384 kinases from the human genome (Homo sapiens, UniProt P45983).
T12 construct: purchased Eurofin/DiscoverX
The note with it: kinase JNK1 (Entrez MAPK8).
From the text: as §1, §2, §3, §4, §5

For test [13], the target named is T13, 384 kinases from the human genome (Homo sapiens, UniProt Q16539).
T13 construct: purchased Eurofin/DiscoverX
The note with it: kinase p38-alpha (Entrez MAPK14).
From the text: as §1, §2, §3, §4, §5

For test [14], the target named is T14, 384 kinases from the human genome (Homo sapiens, UniProt Q96PY6).
T14 construct: purchased Eurofin/DiscoverX
The conditions noted are these: kinase NEK1 (Entrez NEK1).
From the text: as §1, §2, §3, §4, §5

The target of test [15] is T15, 384 kinases from the human genome (Homo sapiens, UniProt P11802).
T15 construct: purchased Eurofin/DiscoverX
From the text: as §1, §2, §3, §4, §5

T15 sequence (P11802 whole entry): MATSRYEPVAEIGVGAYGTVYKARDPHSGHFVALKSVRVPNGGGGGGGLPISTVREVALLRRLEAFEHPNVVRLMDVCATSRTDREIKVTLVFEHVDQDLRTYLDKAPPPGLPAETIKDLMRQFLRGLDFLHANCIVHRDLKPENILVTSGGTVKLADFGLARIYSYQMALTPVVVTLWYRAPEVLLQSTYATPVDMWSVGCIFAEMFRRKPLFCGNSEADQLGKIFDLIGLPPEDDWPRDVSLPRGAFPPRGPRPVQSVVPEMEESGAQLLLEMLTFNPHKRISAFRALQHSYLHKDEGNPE
T8 sequence (Q9UIK4 whole entry): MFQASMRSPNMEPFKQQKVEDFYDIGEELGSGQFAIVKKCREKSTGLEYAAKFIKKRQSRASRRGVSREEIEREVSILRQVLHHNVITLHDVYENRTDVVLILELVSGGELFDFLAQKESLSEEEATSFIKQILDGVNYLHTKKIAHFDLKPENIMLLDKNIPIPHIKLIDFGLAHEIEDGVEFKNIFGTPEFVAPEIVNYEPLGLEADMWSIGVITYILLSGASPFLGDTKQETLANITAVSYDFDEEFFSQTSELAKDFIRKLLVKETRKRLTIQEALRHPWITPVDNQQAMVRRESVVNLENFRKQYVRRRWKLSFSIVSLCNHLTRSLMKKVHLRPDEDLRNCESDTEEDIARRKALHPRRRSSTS
T1 sequence (O43283 whole entry): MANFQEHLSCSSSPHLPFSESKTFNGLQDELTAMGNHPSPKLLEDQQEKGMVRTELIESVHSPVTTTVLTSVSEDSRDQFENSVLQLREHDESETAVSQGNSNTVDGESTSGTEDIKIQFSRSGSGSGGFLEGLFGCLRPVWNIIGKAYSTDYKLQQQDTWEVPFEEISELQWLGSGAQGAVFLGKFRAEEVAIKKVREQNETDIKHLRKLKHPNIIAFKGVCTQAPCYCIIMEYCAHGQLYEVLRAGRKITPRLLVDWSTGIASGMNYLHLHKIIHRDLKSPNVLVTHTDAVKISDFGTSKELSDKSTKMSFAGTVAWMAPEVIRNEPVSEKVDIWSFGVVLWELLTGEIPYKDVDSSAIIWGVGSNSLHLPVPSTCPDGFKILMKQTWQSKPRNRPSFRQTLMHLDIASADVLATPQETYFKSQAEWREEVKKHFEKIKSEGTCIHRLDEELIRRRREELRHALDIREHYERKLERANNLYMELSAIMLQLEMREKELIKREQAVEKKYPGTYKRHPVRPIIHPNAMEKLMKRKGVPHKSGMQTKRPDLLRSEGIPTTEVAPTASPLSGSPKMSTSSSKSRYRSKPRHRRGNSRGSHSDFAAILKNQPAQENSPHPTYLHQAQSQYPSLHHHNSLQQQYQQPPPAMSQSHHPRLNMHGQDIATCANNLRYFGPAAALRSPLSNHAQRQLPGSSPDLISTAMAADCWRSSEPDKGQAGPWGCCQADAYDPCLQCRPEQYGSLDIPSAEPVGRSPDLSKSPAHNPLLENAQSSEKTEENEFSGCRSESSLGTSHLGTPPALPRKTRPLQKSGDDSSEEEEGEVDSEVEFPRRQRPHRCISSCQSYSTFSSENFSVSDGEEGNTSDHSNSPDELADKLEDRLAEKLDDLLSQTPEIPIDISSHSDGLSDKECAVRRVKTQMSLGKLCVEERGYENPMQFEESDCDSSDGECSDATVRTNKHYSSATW
T14 sequence (Q96PY6 whole entry): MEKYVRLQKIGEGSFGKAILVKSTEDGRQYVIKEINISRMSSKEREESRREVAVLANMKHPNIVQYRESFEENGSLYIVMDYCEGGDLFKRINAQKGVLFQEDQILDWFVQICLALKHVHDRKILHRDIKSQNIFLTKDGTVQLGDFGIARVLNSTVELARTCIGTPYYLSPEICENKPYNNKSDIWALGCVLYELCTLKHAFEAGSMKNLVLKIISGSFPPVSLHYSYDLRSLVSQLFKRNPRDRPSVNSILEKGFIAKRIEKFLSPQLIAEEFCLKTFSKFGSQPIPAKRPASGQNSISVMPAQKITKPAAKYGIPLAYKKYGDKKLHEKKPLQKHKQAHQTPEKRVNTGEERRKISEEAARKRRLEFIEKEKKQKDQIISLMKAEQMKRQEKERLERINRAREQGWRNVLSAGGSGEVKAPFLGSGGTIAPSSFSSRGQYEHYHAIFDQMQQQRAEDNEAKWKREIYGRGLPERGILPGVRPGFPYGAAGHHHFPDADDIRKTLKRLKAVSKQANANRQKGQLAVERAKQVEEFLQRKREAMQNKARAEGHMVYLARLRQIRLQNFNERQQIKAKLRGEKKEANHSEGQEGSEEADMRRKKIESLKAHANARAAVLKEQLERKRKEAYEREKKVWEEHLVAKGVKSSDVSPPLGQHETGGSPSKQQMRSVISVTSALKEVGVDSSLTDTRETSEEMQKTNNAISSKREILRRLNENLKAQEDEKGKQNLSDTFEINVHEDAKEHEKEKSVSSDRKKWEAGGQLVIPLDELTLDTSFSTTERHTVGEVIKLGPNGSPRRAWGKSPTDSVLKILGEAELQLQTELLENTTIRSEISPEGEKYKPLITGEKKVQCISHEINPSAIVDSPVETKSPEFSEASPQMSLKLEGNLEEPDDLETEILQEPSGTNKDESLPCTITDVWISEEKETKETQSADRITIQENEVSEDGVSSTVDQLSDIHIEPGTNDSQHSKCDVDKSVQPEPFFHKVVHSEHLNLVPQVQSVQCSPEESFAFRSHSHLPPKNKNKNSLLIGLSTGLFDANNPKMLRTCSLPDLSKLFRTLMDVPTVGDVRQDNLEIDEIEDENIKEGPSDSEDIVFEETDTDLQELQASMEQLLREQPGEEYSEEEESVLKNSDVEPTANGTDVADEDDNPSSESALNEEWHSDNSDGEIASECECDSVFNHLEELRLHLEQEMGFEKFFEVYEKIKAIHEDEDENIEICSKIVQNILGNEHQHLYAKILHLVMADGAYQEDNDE
T12 sequence (P45983 whole entry): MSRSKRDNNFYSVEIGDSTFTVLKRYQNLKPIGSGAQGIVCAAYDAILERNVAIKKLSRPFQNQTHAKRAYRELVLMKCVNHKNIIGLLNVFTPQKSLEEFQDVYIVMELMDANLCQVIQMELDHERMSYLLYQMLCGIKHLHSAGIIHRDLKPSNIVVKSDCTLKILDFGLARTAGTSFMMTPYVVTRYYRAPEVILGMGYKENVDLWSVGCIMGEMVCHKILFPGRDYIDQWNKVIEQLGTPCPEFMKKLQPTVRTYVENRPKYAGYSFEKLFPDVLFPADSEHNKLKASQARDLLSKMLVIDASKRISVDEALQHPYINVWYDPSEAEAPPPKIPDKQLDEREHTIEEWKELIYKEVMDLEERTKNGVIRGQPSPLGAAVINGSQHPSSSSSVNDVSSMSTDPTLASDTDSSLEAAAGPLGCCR
T6 sequence (P11362 22-822): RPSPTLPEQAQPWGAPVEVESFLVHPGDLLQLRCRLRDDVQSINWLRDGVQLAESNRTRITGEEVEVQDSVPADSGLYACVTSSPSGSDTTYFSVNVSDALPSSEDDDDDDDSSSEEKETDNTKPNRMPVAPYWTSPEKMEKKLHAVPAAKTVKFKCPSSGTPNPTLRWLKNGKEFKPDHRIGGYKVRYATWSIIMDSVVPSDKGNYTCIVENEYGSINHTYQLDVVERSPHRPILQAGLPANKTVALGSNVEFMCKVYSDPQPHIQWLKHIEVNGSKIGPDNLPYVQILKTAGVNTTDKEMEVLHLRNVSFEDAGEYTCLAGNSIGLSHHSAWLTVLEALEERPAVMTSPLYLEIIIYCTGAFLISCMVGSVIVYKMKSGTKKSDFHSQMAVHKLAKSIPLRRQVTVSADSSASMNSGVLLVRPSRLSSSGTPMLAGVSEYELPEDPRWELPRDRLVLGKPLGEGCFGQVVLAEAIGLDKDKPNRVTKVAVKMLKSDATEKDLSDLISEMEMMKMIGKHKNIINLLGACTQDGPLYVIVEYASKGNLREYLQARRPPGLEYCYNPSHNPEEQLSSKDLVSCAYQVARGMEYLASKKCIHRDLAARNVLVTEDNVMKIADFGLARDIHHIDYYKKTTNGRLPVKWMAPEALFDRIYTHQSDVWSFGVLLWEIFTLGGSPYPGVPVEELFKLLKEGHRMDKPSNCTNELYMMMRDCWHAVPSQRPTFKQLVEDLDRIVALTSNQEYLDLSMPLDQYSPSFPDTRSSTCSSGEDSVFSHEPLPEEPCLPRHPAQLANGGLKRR
T10 sequence (Q9UHD2 whole entry): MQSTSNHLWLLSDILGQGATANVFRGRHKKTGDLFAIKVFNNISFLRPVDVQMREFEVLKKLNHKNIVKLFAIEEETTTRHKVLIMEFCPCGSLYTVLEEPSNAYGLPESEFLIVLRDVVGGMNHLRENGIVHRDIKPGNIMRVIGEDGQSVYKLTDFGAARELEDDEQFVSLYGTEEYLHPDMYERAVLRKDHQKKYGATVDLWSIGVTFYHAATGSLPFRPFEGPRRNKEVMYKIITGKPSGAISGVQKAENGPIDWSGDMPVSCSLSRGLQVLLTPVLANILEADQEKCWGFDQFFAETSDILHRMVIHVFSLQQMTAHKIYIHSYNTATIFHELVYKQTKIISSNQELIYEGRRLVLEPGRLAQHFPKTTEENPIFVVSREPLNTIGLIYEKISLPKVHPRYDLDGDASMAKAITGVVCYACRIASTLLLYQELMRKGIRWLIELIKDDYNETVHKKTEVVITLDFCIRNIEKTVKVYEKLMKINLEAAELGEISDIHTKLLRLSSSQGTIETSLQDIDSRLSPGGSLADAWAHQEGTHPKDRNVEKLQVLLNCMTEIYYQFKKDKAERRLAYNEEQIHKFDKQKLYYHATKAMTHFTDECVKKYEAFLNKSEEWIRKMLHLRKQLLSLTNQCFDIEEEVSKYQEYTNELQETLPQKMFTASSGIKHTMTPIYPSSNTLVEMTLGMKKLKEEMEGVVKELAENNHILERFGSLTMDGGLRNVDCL

`CC(C)C(=O)N1CCN(c2ccc(NC(=O)c3cc4ccccc4o3)cc2Cl)CC1` [Compound 21]: the “Percent Control” value in test [1] came out at 100%; in [2] it was 100%; in test [3] (kinase FLT3 (Entrez FLT3)), 6.6%; in [3] (kinase FLT3-autoinhibited (Entrez FLT3)), 71%; in test [4] it was 100%; in test [5] it was 97%. Further, the “Percent Control” value in [6] was 99%; in test [7], 76%; in [8] it was 100%; in [9], 96%; in [10], 100%; in [11], 100%. The “Percent Control” value is given as 63% in test [12]; 100% in test [13]; 77% in test [14]; 97% in test [15] (kinase CDK4 (Entrez CDK4)); 86% in test [15] (kinase CDK4-cyclinD1 (Entrez CDK4)); 96% in [15] (kinase CDK4-cyclinD3 (Entrez CDK4)). The “FLT3 binding to its ligand affected” value in test [3] (10 µM of 21, compared to DMSO (100%)) is on record as “more than 90%”.
